The values that follow come from publication PMC2943038 (Chemical communications (Cambridge, England), 2010).

Molecules are shown by their SMILES. Where two headings read alike, the source gives them in different places. Bounds are passed on as bounds.

Experiment [1] concerns the target T1, PAD4 (Homo sapiens, UniProt Q9UM07). Put plainly: gel-based ABPP secondary screen.
The target in experiment [2] is T1, PAD4. Put plainly: PAD4 inhibition/inactivation, residual activity measured with BAEE. In kind it is biochemical.
Experiment [3] concerns the target T1, PAD4. Put plainly: fluopol-ABPP HTS.
For a further experiment, the system named is MCF-7 cells. Nature of the experiment: histone H3 citrullination Western blot in MCF-7 cells. Type of experiment: cell-based. The following applies: MCF7 cells; anti-citrulline histone H3 Western blot; 1, 10, or 100 nM, dose dependent.
Experiment [4] addresses T2, PAD2 (Homo sapiens, UniProt Q9Y2J8). The note with it: PAD4 over PAD2, relative values of kinact/KI.
For the next experiment, the target named is T3, PAD3 (Homo sapiens, UniProt Q9ULW8).
T3 sequence (Q9ULW8 1-664): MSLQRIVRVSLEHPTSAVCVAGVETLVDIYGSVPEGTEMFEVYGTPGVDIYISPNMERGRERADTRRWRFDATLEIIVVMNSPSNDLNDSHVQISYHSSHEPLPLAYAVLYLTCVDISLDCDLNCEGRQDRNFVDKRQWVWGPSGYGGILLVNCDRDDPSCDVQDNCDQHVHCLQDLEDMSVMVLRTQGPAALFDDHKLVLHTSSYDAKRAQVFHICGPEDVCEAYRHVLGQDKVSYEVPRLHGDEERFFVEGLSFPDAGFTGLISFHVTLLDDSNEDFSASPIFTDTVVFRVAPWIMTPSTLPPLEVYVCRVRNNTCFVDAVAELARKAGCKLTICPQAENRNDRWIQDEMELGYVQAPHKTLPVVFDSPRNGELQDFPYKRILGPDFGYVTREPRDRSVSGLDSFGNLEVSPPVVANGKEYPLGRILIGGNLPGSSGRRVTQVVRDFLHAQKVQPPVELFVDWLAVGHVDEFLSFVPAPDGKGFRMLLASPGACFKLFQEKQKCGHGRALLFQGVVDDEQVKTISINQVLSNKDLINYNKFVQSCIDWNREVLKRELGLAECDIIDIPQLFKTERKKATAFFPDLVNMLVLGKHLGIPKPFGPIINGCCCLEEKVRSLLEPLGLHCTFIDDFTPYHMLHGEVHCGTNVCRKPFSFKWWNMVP
Put plainly: biochemical.

The target of a further experiment is T4, PAD1 (Homo sapiens, UniProt Q9ULC6).
T4 sequence (Q9ULC6 1-663): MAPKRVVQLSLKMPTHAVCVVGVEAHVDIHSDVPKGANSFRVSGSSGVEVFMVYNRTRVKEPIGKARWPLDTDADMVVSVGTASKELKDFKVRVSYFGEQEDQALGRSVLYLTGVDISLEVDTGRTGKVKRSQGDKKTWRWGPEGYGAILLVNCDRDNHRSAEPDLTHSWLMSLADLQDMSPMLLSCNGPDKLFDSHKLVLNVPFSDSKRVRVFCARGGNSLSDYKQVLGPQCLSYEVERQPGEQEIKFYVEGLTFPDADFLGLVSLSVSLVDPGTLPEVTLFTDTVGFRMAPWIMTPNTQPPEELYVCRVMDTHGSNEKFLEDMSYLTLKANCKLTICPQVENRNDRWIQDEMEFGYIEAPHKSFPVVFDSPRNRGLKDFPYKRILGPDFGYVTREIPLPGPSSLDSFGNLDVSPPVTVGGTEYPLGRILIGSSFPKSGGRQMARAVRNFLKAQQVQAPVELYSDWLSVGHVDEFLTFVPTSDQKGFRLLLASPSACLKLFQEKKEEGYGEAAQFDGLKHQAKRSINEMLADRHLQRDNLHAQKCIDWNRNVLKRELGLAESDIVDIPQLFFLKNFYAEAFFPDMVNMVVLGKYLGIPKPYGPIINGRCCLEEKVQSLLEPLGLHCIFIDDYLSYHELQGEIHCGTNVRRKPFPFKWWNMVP
Nature of the experiment: PAD1 inhibition/inactivation, residual activity measured with BAEE.

The target in experiment [5] is T2, PAD2. Nature of the experiment: biochemical.
Another experiment relates to HL-60 granulocytes. Put plainly: histone H3 citrullination Western blot in HL-60 granulocytes. In kind it is cell-based. The note with it: anti-citrulline histone H3 Western blot, 1, 10, or 100 nM, dose dependent.

T1 sequence (Q9UM07 whole entry): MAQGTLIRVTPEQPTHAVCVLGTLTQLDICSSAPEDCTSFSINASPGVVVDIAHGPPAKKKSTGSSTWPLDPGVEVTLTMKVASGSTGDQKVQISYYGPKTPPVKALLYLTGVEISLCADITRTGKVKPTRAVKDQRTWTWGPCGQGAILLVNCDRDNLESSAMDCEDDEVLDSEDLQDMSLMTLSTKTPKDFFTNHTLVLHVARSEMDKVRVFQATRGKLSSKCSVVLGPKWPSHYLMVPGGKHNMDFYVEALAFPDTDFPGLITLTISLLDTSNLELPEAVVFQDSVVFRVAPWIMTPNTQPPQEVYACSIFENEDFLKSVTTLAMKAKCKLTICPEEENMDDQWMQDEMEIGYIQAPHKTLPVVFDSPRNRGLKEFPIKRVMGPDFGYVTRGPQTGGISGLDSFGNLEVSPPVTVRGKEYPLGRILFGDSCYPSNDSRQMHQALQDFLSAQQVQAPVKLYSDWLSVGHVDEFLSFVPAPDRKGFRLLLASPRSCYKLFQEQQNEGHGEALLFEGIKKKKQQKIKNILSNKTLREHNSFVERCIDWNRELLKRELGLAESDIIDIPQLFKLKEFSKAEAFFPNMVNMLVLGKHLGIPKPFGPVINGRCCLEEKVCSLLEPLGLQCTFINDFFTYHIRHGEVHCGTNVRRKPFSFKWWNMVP
T2 sequence (Q9Y2J8 whole entry): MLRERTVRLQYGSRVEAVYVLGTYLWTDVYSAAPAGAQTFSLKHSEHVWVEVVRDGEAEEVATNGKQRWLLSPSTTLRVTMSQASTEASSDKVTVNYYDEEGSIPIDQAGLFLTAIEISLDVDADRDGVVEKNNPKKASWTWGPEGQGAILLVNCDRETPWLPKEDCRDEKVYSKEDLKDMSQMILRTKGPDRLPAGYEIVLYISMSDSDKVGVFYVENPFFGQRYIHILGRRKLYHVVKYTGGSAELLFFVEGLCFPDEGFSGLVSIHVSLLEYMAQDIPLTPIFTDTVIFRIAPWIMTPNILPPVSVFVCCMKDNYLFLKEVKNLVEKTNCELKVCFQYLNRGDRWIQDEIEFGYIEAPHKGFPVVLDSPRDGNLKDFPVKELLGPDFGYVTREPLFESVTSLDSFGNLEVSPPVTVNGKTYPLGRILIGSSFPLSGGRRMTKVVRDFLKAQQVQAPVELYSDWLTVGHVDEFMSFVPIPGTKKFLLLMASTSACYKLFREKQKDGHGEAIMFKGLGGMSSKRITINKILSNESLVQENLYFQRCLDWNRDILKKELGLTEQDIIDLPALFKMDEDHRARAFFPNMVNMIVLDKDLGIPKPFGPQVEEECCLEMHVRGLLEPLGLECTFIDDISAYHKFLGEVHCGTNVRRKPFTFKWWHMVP

Usually IC50 stands for the concentration that gives 50% inhibition. Consider `Cc1ccc(S(=O)(=O)N[C@@H](Cc2ccccc2)C(=O)CCl)cc1` [NIH5, tosyl phenylalanyl chloromethyl ketone], for which the “% Inhibition (Gel based ABPP)” value at PAD4 [1] (10 μM final, inhibition of RFA labeling of PAD4) amounted to 12.9%. On PAD4 [2] (read-out: IC50 for PAD4, Table 1, hits of the HTS), the IC50 was determined as 13 ± 2 µM. Also, the “% Inhibition (library screen)” value on PAD4 [3] (5 μM compound final, 2 μM PAD4, 75 nM RFA, 300 min) is given as 39.7%.

Usually inhibition stands for the percentage by which the read-out fell short of the control. Turning to `COC1=C(N)C(=O)c2nc(-c3nc(C(=O)O)c(C)c(-c4ccc(OC)c(OC)c4O)c3N)ccc2C1=O` [NIH6, streptonigrin], the “concentration that reduced levels of citrullinated histone H3” value in the experiment on MCF-7 cells and in the experiment on HL-60 granulocytes was no more than 1 nM throughout. Moreover, the Fold selectivity at PAD2 [4] is recorded as 37 fold. Moreover, the inhibition at 10 µM at PAD4 [1] (read-out: % Inhibition (Gel based ABPP)) came out at 93.9%. The same molecule registered an IC50 on PAD4 [2] of 1.87 ± 0.24 µM. For the same molecule, the Ki on PAD4 [2] was found to be 8.5 ± 4.3 µM; at PAD3 it was 49 ± 34 µM; at PAD1, 11 ± 7 µM; at PAD2 [5], 17 ± 5.8 µM. In addition, the “PAD4 activity recovered after dialysis (reversibility)” value on PAD4 [2] (incubated with PAD4 for 30 min, dialyzed overnight (~20 h)) is on record as “no PAD4 activity was recovered”. The inhibition at 5 µM at PAD4 [3] (read-out: % Inhibition (library screen)) amounted to 92.5%.
